Test results as given in ChEMBL document CHEMBL1201862, “PubChem BioAssay data set” (2004).
Active and inactive are the calls of the source.

Experiments:
Caspase-3 = Caspase-3 (Homo sapiens, UniProt P42574); assay type: functional;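 also: Dose-response selectivity test against caspase-3 for candidate inhibitors of sentrin-specific proteases (SENPs)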
[1] = molecular target: Sentrin-specific protease 7 (Homo sapiens, UniProt Q9BQF6); assay type: functional;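 also: Luminescence-based dose-response confirmation of ultra-high-throughput screening hits, measuring inhibition of SENP7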
[2] = molecular target: Sentrin-specific protease 6 (Homo sapiens, UniProt Q9GZR1); assay type: functional;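 also: Luminescence-based dose-response confirmatory assay of SENP6 inhibition, following up an ultra-high-throughput screen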
[3] = molecular target: T1, Sentrin-specific protease 8 (Homo sapiens, UniProt Q96LD8); assay type: functional;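 also: luminescence read-out of SENP8 inhibition, dose-response confirmation following an ultra-high-throughput screen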
T1 sequence (Q96LD8 whole entry): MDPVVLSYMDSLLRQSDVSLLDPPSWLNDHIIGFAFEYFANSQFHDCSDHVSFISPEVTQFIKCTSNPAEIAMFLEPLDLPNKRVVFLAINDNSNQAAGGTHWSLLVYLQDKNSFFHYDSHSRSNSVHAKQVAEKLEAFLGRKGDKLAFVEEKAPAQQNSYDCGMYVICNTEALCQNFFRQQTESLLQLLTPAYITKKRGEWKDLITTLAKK

Trypsin = Trypsin (Sus scrofa, UniProt P00761); experiment: porcine trypsin inhibitors, dose response, selectivity assay for Rce1 protease inhibitor project, biochemical, quenched peptide fluorescence, cherry-pick (AID 488789)
CAAX prenyl protease 2 [4] = molecular target: T2, CAAX prenyl protease 2 (Saccharomyces cerevisiae S288c, UniProt Q03530); assay type: biochemical
T2 sequence (Q03530 whole entry): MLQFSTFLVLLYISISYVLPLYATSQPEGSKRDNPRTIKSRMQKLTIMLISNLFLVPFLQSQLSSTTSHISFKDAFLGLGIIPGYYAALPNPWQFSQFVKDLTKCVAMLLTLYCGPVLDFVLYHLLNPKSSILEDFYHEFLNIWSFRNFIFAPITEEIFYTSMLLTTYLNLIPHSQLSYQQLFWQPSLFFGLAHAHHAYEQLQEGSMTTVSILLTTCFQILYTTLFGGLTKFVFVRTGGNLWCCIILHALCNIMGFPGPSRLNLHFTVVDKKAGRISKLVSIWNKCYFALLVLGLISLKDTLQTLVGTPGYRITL

CAAX prenyl protease 2 [5] = molecular target: CAAX prenyl protease 2 (Homo sapiens, UniProt Q9Y256); experiment: human Rce1 protease inhibitors, dose response, biochemical, yeast membranes, quenched-peptide fluorescence, cherry-pick (AID 588849)
BJ [6] = experiment: cytotoxicity toward BJ-TERT fibroblasts, dose response, cell-based, RAS-independent, luminescence (AID 1933); assay type: functional; conditions: Homo sapiens
BJ [7] = experiment: cells; assay type: functional, cell-based; conditions: Homo sapiens
BJ [8] = experiment: cytotoxicity toward BJ-TERT-LT-ST fibroblasts, dose response, cell-based, RAS-independent, luminescence (AID 1935); assay type: functional; conditions: Homo sapiens;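 also: BJ fibroblasts immortalized with TERT plus LT and ST oncogenes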
[9] = cytotoxicity toward DRD oncogenic fibroblasts, dose response, cell-based, non-viral oncogenic, luminescence (AID 1934); assay type: functional; conditions: Homo sapiens
BJ [10] = experiment: cytotoxicity toward Ras-transformed BJeLR fibroblasts, dose response, cell-based, alamar blue fluorescence, cherrypicked samples (AID 2631); assay type: functional; conditions: Homo sapiens;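 also: confirmatory dose-response assay in RAS-dependent BJ fibroblasts engineered with TERT, LT and ST, with cytotoxicity read by fluorescence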
[11] = test system: Streptococcus sp. 'group A'; experiment: growth inhibition of control SK(-) GAS strain, dose response, counter-screen for streptokinase expression inhibitor project, luminescence, kanamycin, BacTiterGlo, confirmation (AID 1900); assay type: functional, organism-based
Streptokinase A = molecular target: T3, Streptokinase A (Streptococcus pyogenes serotype M1, UniProt P10520); experiment: S. pyogenes streptokinase expression inhibitors, potency, dose response, plasminogen activation absorbance, OD405 (AID 1914); assay type: functional, Streptococcus pyogenes M1 GAS;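 also: secreted streptokinase activity via plasminogen activation per viability signal from cell pellet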
T3 sequence (P10520 whole entry): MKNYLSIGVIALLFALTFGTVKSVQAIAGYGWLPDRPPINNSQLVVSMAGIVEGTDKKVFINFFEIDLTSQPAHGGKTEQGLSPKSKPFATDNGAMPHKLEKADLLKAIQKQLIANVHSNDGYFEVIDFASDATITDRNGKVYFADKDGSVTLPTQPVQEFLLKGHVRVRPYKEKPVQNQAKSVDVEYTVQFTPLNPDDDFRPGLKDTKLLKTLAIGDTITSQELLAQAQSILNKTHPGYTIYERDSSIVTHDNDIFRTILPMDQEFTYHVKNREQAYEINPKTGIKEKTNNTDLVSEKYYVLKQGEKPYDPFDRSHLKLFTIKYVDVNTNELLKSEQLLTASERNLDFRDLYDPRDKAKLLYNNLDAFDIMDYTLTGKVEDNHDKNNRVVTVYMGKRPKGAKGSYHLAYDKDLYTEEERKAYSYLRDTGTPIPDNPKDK

Streptococcus = experiment: Group A Streptococcus viability loss, dose response, counter-screen for streptokinase expression inhibitor project, luminescence, BacTiterGlo (AID 1915); assay type: functional, organism-based;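 also: potency for reduction of bacterial viability or growth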
[12] = Luminescence Cell-Based Dose Retest to Confirm Inhibitors of Cancer Stem Cells. [Related pubchem assays (depositor defined):AID2717, AID2721]; assay type: functional; conditions: Homo sapiens
CAAX prenyl protease 1 = CAAX prenyl protease 1 (Saccharomyces cerevisiae S288c, UniProt P47154); experiment: Ste24 protease inhibitors, dose response, biochemical, S. cerevisiae, plate reader, cherry-pick (AID 488815)
[13] = molecular target: Melanin-concentrating hormone receptor 1 (Homo sapiens, UniProt Q99705); experiment: Late-stage fluorescence-based counterscreen for antagonists of the G-protein coupled receptor 7 (GPR7): cell-based dose response assay to identify antagonists of the melanin-concentrating hormone receptor 1 (MCHR1) Set 5.; assay type: functional
[14] = molecular target: T4, Mannose-6-phosphate isomerase (Homo sapiens, UniProt P34949); experiment: inhibitors of human PMI, primary screen, biochemical, fluorescence intensity, coupled assay (AID 1209)
T4 sequence (P34949 whole entry): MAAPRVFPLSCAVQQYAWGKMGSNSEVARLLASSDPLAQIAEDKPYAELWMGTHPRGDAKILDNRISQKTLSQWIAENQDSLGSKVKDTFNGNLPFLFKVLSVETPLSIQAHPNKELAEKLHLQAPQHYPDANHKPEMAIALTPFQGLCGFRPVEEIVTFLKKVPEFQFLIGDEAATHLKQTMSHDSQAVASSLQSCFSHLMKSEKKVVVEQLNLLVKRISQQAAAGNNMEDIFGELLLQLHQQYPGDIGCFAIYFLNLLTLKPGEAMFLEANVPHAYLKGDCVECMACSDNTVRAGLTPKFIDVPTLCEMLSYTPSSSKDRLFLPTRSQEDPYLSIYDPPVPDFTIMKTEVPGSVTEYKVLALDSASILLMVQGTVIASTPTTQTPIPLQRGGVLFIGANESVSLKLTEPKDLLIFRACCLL

[15] = molecular target: Induced myeloid leukemia cell differentiation protein Mcl-1 (Homo sapiens, UniProt Q07820); assay type: functional
[16] = molecular target: T4, Mannose-6-phosphate isomerase; experiment: human PMI inhibitors, high substrate, primary screen, biochemical, fluorescence intensity, high mannose 6-phosphate (AID 1220)
[17] = Luminescence-based cell-based high throughput dose response assay to identify activators of the DAF-12 from the parasite S. stercoralis (ssDAF-12).; assay type: functional
[18] = molecular target: T5, Oxysterols receptor LXR-beta (Homo sapiens, UniProt P55055); experiment: LXR agonists, Gal4 luciferase reporter, dose response, counter-screen for ssDAF-12 agonist project, cell-based, luminescence, HEK293, S. stercoralis campaign (AID 720737); assay type: functional; conditions: read-out: IC50 (the source's name)
T5 sequence (P55055 whole entry): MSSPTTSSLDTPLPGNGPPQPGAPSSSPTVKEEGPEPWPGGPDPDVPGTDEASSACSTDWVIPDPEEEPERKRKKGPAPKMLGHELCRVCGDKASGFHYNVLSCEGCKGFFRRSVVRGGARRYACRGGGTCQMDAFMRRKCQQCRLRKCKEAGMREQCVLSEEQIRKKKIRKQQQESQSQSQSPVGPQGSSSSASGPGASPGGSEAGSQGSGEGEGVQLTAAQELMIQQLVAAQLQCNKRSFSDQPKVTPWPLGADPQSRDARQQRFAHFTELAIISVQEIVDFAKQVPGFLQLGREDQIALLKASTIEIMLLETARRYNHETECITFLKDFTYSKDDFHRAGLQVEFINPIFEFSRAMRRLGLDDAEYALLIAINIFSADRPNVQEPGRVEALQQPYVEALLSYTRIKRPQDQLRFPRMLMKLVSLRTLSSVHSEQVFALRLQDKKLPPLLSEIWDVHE

[19] = molecular target: T5, Oxysterols receptor LXR-beta; assay type: functional, cell-based

Sequence of Sentrin-specific protease 7 (Q9BQF6 whole entry): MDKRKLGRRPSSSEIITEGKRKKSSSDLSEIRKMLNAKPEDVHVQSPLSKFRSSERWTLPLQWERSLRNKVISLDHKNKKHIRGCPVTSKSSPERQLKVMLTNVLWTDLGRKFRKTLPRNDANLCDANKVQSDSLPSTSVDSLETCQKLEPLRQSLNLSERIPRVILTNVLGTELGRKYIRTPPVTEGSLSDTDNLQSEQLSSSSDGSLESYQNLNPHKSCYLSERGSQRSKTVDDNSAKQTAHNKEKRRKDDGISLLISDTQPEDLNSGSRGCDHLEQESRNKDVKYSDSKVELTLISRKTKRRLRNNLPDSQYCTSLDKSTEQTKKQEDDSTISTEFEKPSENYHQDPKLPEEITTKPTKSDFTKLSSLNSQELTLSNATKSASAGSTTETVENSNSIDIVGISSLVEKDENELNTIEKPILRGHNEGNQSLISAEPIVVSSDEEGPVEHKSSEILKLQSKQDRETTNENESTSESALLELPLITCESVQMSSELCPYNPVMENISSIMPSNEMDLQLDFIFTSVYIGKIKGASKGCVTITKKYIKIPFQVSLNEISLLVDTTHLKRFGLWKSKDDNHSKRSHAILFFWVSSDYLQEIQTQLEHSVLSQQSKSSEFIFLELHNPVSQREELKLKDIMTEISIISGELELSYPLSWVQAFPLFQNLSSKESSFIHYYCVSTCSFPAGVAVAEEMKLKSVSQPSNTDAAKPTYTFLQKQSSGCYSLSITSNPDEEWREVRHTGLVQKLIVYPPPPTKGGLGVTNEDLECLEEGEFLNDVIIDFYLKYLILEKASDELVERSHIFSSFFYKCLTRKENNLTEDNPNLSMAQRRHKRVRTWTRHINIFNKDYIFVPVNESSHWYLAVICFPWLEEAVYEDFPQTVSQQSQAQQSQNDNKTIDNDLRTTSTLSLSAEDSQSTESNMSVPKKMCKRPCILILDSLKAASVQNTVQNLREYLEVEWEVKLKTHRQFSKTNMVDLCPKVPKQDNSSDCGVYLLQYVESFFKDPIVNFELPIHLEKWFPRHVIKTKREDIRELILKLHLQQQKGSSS
Sequence of Sentrin-specific protease 6 (Q9GZR1 whole entry): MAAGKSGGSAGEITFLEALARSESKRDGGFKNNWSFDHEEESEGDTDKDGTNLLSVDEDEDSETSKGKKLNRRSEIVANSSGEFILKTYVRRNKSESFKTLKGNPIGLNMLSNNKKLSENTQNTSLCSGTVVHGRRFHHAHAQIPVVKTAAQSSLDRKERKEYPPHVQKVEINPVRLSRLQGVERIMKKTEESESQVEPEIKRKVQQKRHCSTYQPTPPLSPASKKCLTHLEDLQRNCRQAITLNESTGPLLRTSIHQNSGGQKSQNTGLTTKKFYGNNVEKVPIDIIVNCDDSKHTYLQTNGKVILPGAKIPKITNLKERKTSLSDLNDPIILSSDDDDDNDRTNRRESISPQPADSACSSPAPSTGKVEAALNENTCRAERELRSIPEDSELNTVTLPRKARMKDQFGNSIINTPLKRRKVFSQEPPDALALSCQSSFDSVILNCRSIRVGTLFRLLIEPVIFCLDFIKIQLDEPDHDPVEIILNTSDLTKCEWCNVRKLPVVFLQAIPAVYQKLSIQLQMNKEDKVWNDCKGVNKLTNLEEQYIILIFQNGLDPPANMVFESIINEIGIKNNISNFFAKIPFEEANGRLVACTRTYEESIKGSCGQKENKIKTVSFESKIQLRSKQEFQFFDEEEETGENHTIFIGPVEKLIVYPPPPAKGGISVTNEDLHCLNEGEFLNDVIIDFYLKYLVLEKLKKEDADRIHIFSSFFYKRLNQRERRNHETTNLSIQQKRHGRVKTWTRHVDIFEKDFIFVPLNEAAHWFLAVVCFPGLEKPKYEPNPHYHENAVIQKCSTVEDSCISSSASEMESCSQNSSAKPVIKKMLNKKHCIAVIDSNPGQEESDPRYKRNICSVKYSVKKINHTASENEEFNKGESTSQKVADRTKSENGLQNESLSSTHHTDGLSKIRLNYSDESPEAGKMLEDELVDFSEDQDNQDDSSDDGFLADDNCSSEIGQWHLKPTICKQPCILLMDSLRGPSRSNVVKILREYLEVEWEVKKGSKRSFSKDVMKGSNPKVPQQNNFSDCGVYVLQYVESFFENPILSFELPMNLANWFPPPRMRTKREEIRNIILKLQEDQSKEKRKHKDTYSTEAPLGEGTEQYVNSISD
Sequence of Trypsin (P00761 whole entry): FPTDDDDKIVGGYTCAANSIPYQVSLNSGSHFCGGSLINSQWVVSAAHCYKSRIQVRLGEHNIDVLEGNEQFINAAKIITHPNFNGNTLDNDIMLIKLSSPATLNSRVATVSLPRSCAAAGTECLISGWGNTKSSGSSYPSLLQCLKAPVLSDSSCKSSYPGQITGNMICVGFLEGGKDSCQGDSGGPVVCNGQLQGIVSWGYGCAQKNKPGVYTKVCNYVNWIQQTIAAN
Sequence of Caspase-3 (P42574 29-175 limits assumed): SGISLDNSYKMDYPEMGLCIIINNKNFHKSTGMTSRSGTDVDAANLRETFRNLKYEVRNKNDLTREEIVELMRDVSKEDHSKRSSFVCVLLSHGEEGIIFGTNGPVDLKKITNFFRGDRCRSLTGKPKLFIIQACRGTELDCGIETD
Sequence of Caspase-3 (P42574 176-277 limits assumed): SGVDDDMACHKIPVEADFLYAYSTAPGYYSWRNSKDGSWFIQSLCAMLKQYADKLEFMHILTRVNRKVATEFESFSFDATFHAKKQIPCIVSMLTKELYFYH
Sequence of CAAX prenyl protease 2 (Homo sapiens, UniProt Q9Y256) (Q9Y256 whole entry): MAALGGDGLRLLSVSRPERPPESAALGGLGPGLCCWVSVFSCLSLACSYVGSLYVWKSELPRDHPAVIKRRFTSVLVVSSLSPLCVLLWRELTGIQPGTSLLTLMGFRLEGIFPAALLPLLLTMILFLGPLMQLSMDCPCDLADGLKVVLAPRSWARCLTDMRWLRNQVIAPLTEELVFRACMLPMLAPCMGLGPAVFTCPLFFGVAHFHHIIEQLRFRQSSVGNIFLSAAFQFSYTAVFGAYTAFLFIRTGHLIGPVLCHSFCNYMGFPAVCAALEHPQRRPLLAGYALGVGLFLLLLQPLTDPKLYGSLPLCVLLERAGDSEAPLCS
Sequence of CAAX prenyl protease 1 (P47154 whole entry): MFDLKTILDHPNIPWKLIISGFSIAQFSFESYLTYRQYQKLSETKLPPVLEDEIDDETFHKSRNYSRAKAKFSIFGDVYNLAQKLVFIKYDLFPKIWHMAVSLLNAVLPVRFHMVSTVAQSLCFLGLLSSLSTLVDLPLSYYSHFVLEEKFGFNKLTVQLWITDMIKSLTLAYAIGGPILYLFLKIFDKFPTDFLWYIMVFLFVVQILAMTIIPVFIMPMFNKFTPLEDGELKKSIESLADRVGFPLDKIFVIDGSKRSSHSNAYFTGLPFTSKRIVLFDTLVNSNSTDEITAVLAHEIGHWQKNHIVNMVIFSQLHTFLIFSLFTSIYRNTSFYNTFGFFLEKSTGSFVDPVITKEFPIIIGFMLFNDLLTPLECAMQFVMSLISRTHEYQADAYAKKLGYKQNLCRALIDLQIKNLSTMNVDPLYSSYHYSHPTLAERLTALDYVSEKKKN
Sequence of Induced myeloid leukemia cell differentiation protein Mcl-1 (Q07820 whole entry): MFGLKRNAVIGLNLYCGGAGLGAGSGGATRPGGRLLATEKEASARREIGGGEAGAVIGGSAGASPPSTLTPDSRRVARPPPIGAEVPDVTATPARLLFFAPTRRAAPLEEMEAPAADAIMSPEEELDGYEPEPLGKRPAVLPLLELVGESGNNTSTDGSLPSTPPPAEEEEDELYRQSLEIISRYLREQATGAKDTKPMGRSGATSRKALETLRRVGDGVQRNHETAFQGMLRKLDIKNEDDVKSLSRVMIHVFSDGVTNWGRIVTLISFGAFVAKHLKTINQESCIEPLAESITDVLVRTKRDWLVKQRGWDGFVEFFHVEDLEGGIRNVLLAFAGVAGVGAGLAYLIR
Sequence of Melanin-concentrating hormone receptor 1 (Q99705 whole entry): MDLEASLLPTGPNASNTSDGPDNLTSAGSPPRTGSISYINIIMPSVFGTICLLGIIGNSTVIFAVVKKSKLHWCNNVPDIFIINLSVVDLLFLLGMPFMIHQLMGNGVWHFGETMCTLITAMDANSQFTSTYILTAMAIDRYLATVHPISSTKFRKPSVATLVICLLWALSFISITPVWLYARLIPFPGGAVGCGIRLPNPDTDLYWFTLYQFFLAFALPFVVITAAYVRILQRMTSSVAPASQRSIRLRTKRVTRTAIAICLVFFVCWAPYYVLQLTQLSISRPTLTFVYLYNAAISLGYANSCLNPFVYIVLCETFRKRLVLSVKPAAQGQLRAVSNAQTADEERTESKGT

Q: Which results are given for `Cc1ccc(OCc2nc(-c3ccccc3)no2)cc1`?
A: IC50 (Caspase-3): 42.1 µM (active); IC50 [1]: 11.6 µM (active); IC50 [2]: 47.1 µM (active); IC50 [3]: 69.9 µM (active)

Q: Which results are given for `CCOc1ccc(S(=O)(=O)Nc2cc(OC)c(OC)cc2C(=O)O)cc1`?
A: AC50 (Trypsin): 7.53 µM (active); AC50 (CAAX prenyl protease 2 [4]): 9.8 µM (active); AC50 (CAAX prenyl protease 2 [5]): 4.23 µM (active)

Q: For `Cc1ccccc1Nc1nc(N)nc(CCl)n1`, which EC50 (BJ [6]) is on record?
A: Its EC50 is 0.369 µM (inconclusive).

Q: And the EC50 (BJ [7])?
A: Its EC50 is 7.39 µM (inconclusive).

Q: And the EC50 (BJ [8])?
A: The EC50 was > 150 µM (not active).

Q: What about the EC50 [9] of the same compound?
A: The EC50 was 4.85 µM (active).

Q: What about the EC50 (BJ [10]) of the same compound?
A: The EC50 was 13.6 µM (active).

Q: With `Cc1cccc(-c2oc3ccccc3c2C#CCCCCO)c1` as the compound, how does the EC50 [11] read?
A: Its EC50 is 4.57 µM (active).

Q: What about the EC50 (Streptokinase A) of the same compound?
A: Its EC50 is > 150 µM (not active).

Q: And the EC50 (Streptococcus)?
A: The EC50 was 7.64 µM (active).

Q: And the AC50 [12]?
A: The AC50 was 6.31 µM (active).

Q: What about the AC50 (Trypsin) of the same compound?
A: The AC50 was 3.53 µM (active).

Q: And the AC50 (CAAX prenyl protease 2 [4])?
A: The AC50 was 7.08 µM (active).

Q: And the AC50 (CAAX prenyl protease 1)?
A: Its AC50 is 3.56 µM (active).

Q: What about the AC50 (CAAX prenyl protease 2 [5]) of the same compound?
A: The AC50 was 12.9 µM (active).

Q: With `COc1ccc(Oc2c(Cl)cnn(C3c4ccccc4Oc4ccccc43)c2=O)cc1` as the compound, how does the IC50 [13] read?
A: Its IC50 is > 20 µM (inactive).

Q: Which results are given for `COc1ccc(-n2nc3cc(C)c(N)c(Br)c3n2)cc1`?
A: IC50 [14]: > 50 µM (not active); IC50 [15]: 2.53 µM (active); IC50 [16]: > 50 µM (not active); IC50 (Caspase-3): 35.5 µM (active); IC50 [1]: 5.86 µM (active); IC50 [2]: 13.7 µM (active); IC50 [3]: 41.3 µM (active); IC50 [17]: > 67.5 µM (inactive); EC50 [18]: > 67.5 µM (inactive); EC50 [19]: > 67.5 µM (inactive); EC50 (cells): > 67.5 µM (inactive)
